Several values for one entry are separate records, joined by “and”; a condition that tells them apart may be missing. Equal values may be shown once. Read-outs that look alike come from different tables or passages of the source.
What was measured:
[1] = system: DBA1/J mice; assay: Collagen type II induced arthritis, therapeutic treatment (Example 2); format: in vivo; conditions: for Ankylosis score / Incidence of ankylosis (% of animals affected) / Incidence of arthritis (% of animals affected) / Mean Arthritic Score / Mean number of affected paws: treated day 30-49
Protocol: Male DBA1/J mice were immunized intradernally with collagen type II emulsified in complete Freund's Adjuvant on day 0 and day 21. Treatment of mice was started on day 30 (10 animals/treatment group; the animals were randomized so that both groups had similar arthritic symptoms at the start). Mice were treated orally with vehicle [DMSO: cremophor: 0.9% NaCl solution, 1:1:8 (v:v:v)] or compound 75 at a dose of 100 mg/kg. Three times per week symptoms of arthritis were scored. Animals were treated till day 49, at day 50 animals were sacrificed, blood was collected for analysis of anti-collagen antibodies, and […].
Trained lab personnel evaluated the severity and incidence of the arthritic symptoms at regular intervals without knowing which animals had received vehicle or drug.
In Table 14, the mean arthritic score is shown. For each paw, a score ranging from 0 (normal) to 2 (maximal redness and swelling) is given. The score for the 4 paws is summed up and averaged for the 10 animals per group (=Mean arthritic score).
Table 16 summarizes the results of the observations for the occurrence of ankylosis as the arthritis progresses. Each paw is scored as follows: 0 for no ankylosis, 1 for ankylosis. Again the results for the four paws are summed up and averaged for the 10 animals. Ankylosis starts to occur around day 30. During the whole treatment period, ankylosis is lower in the drug treated group than in the vehicle treated group.
In table 19, the radiographic score of the individual mice is depicted. For each paw, a score ranging from 0 (normal) to 2 (deformation of the whole paw was given. The scores of the four paws are summed up.

[2] = system: Lewis rats; format: in vivo; conditions: for % change in body-weight #<−21% / % change in body-weight #>10% / % change in body-weight Mean: day 14-21, 6 animals; for % change in swelling Mean / % change in swelling #<80% / % change in swelling #>170% / % change in swelling #>150%: paw swelling day 21 as % of day 14, 6 animals; for % change in swelling #<80%: criterion for anti-inflammatory activity; for % change in swelling #>170%: pro-inflammatory activity; for % change in swelling #>150%: tendency towards pro-inflammatory activity
Protocol: Male SPF-breeded Lewis rats (Charles River; 225-275 g) were housed in individual cages under standard laboratory conditions (21±2° C.; 65±15% relative humidity; light-dark cycle set at 12 h). Mycobacterium butyricum (heat-killed and suspended in paraffin oil at 5 mg/ml; 0.05 ml) was inoculated intradermally at the tail base of the rats. On day 14 after inoculation, the diameters (Ø) of the hind paws and tibiotarsal joints (ΣØ14) were compared with the initial diameters (ΣØ0) and rats with a significant swelling (ΔØ14-0≧6.0 mm) were assigned to the various treatment groups (n=6; […]).
Body weight and paw diameters were measured at days 14 and after 1-week treatment at day 21. Diet consumption was also measured and the number of dead animals on day 21 was noted. Paw swelling at day 21 was expressed as a percentage of the initial inflammation at the start of the treatment (day 14). Control animals were included in each experimental session. Test compounds were administered via a medicated diet. For that purpose, compounds were mixed with ground pellets in proportion to give an approximate daily dose. This medicated diet was administered ad libitum during the experimental period. The real dose was calculated by multiplying the consumed amount of diet with the concentration of the test compound in the diet.
Based on a frequency distribution of a series of control data (n=181), all-or-nothing criteria for drug-induced effects were established. The averaged body weight change during the 1 week experimental period in the control population was a decrease of 7 g. […] In the same set of control animals, paw swelling at day 21 was on the average 117% of the initial value at day 14.

[3] = 100 mg/kg orally from day 30, versus vehicle
[4] = day 22 after immunization, 100 mpk orally
[5] = day 24 after immunization, 100 mpk orally
[6] = day 28 after immunization, 100 mpk orally
[7] = day 29 after immunization, 100 mpk orally
[8] = day 31 after immunization, 100 mpk orally
[9] = day 34 after immunization, 100 mpk orally
[10] = day 36 after immunization, 100 mpk orally
[11] = day 38 after immunization, 100 mpk orally
[12] = day 41 after immunization, 100 mpk orally
[13] = day 43 after immunization, 100 mpk orally
[14] = day 45 after immunization, 100 mpk orally
[15] = day 48 after immunization, 100 mpk orally
[16] = day 50 after immunization, 100 mpk orally
[17] = dose 40 mg/kg via medicated diet
[18] = dose 80 mg/kg via medicated diet
[19] = dose 160 mg/kg via medicated diet

Structure (SMILES): Cn1cncc1C(N)(c1ccc(Cl)cc1)c1ccc2c(c1)c(-c1cccc(Cl)c1)cc(=O)n2C (single isomer, unassigned; (+)) [Compound 75, (+)-6-[amino(4-chlorophenyl)(1-methyl-1H-imidazol-5-yl)methyl]-4-(3-chlorophenyl)-1-methyl-2(1H)-quinolinone]
- effect on mean arthritic score (in words) [1, 3]: clearly suppresses the arthritic score
- effect on mean number of affected paws (in words) [1, 3]: reduces that number
- lethalities ([1]; 100 mg/kg orally, day 30-49): no lethalities were observed
- signs of toxicity ([1]; 100 mg/kg orally, day 30-49): did not show any signs of toxicity
- Radiographic score, Average ([1]; average of 10 mice, 100 mpk orally, treated day 30-49, radiographs at day 50): 2.3
- Ankylosis score [1, 4]: 0.00
- Incidence of ankylosis (% of animals affected) [1, 4]: 0%
- Incidence of arthritis (% of animals affected) [1, 4]: 0%
- Mean Arthritic Score [1, 4]: 0.00
- Mean number of affected paws [1, 4]: 0.00
- Ankylosis score [1, 5]: 0.00
- Incidence of ankylosis (% of animals affected) [1, 5]: 0%
- Incidence of arthritis (% of animals affected) [1, 5]: 10%
- Mean Arthritic Score [1, 5]: 0.03
- Mean number of affected paws [1, 5]: 0.10
- Ankylosis score [1, 6]: 0.00
- Incidence of ankylosis (% of animals affected) [1, 6]: 0%
- Incidence of arthritis (% of animals affected) [1, 6]: 90%
- Mean Arthritic Score [1, 6]: 3.50
- Mean number of affected paws [1, 6]: 2.40
- Ankylosis score [1, 7]: 0.00
- Incidence of ankylosis (% of animals affected) [1, 7]: 0%
- Incidence of arthritis (% of animals affected) [1, 7]: 100%
- Mean Arthritic Score [1, 7]: 4.25
- Mean number of affected paws [1, 7]: 2.70
- Ankylosis score [1, 8]: 0.80
- Incidence of ankylosis (% of animals affected) [1, 8]: 60%
- Incidence of arthritis (% of animals affected) [1, 8]: 100%
- Mean Arthritic Score [1, 8]: 4.03
- Mean number of affected paws [1, 8]: 2.80
- Ankylosis score [1, 9]: 2.50
- Incidence of ankylosis (% of animals affected) [1, 9]: 90%
- Incidence of arthritis (% of animals affected) [1, 9]: 100%
- Mean Arthritic Score [1, 9]: 3.80
- Mean number of affected paws [1, 9]: 2.60
- Ankylosis score [1, 10]: 2.40
- Incidence of ankylosis (% of animals affected) [1, 10]: 90%
- Incidence of arthritis (% of animals affected) [1, 10]: 90%
- Mean Arthritic Score [1, 10]: 3.00
- Mean number of affected paws [1, 10]: 2.20
- Ankylosis score [1, 11]: 2.60
- Incidence of ankylosis (% of animals affected) [1, 11]: 100%
- Incidence of arthritis (% of animals affected) [1, 11]: 90%
- Mean Arthritic Score [1, 11]: 3.20
- Mean number of affected paws [1, 11]: 2.60
- Ankylosis score [1, 12]: 1.70
- Incidence of ankylosis (% of animals affected) [1, 12]: 70%
- Incidence of arthritis (% of animals affected) [1, 12]: 90%
- Mean Arthritic Score [1, 12]: 3.45
- Mean number of affected paws [1, 12]: 2.40
- Ankylosis score [1, 13]: 2.20
- Incidence of ankylosis (% of animals affected) [1, 13]: 80%
- Incidence of arthritis (% of animals affected) [1, 13]: 90%
- Mean Arthritic Score [1, 13]: 2.15
- Mean number of affected paws [1, 13]: 2.20
- Ankylosis score [1, 14]: 1.90
- Incidence of ankylosis (% of animals affected) [1, 14]: 80%
- Incidence of arthritis (% of animals affected) [1, 14]: 100%
- Mean Arthritic Score [1, 14]: 1.33
- Mean number of affected paws [1, 14]: 1.90
- Ankylosis score [1, 15]: 2.10
- Incidence of ankylosis (% of animals affected) [1, 15]: 90%
- Incidence of arthritis (% of animals affected) [1, 15]: 60%
- Mean Arthritic Score [1, 15]: 1.58
- Mean number of affected paws [1, 15]: 1.50
- Incidence of arthritis (% of animals affected) ([1]; day 50 after immunization (end of the treatment period), 100 mpk orally): 60%
- Ankylosis score [1, 16]: 0.80
- Incidence of ankylosis (% of animals affected) [1, 16]: 40%
- Mean Arthritic Score [1, 16]: 0.88
- Mean number of affected paws [1, 16]: 1.20
- Radiographic score of individual mice ([1]; individual mouse, sum of four paws (0-2 each), 100 mpk orally, treated day 30-49, radiographs at day 50, 100 mg/kg): 2.5 (2×) and 1.0 and 0.0 (2×) and 5.25 and 2.0 (2×) and 3.0 and 4.75
- Radiographic score, Median ([1]; median of 10 mice, 100 mpk orally, treated day 30-49, radiographs at day 50): 2.25
- arthritic symptoms (paw swelling, occurrence of ankylosis and deterioration of the joints as observed on radiographs) ([1]; oral administration to mice with established arthritis): reduces the arthritic symptoms
- % change in body-weight #<−21% [2, 17]: 0 number of animals
- % change in body-weight #>10% [2, 17]: 0 number of animals
- % change in body-weight Mean [2, 17]: −9%
- % change in swelling Mean [2, 17]: 94%
- % change in swelling #<80% [2, 17]: 0 number of animals
- % change in swelling #>170% [2, 17]: 0 number of animals
- % change in swelling #>150% [2, 17]: 0 number of animals
- % change in body-weight #<−21% [2, 18]: 4 number of animals
- % change in body-weight #>10% [2, 18]: 0 number of animals
- % change in body-weight Mean [2, 18]: −19%
- % change in swelling Mean [2, 18]: 86%
- % change in swelling #<80% [2, 18]: 3 number of animals
- % change in swelling #>170% [2, 18]: 0 number of animals
- % change in swelling #>150% [2, 18]: 0 number of animals
- % change in body-weight #<−21% [2, 19]: 4 number of animals
- % change in body-weight #>10% [2, 19]: 0 number of animals
- % change in body-weight Mean [2, 19]: −24%
- % change in swelling Mean [2, 19]: 79%
- % change in swelling #<80% [2, 19]: 3 number of animals
- % change in swelling #>170% [2, 19]: 0 number of animals
- % change in swelling #>150% [2, 19]: 0 number of animals
